Reference: patent publication US20120022159A1, “AMPHIPHILIC STAR-LIKE OR SCORPION-LIKE MACROMOLECULES, VARIOUS COMPOSITIONS AND USES THEREOF” (priority 2004, published 2012)

System: human umbilical vein endothelial cells (HUVECs)
Experiment: Uptake of dye-loaded AScMs in HUVEC monitored by cellular accumulation of fluorescent dyes
Format: cell-based
Procedure: Methods Amphiphilic scorpion-like macromolecules (AScMs) are block copolymers that form micelles at concentrations above their CMC (5×10^−7 M). The uptake of AScMs was investigated in human umbilical vein endothelial cells (HUVECs) by monitoring cellular accumulation of the fluorescent dyes (R110, R123 and LY, respectively). Briefly, fluorescent dyes were added to AScMs solutions (0.0001-1 mM) and incubated at 37° C. for at least 6 hours prior to cell incubation. After determination of R110, R123 and LY partitioning into the AScMs micelles, dye-loaded AScMs were incubated with HUVEC. Uptake of dye-loaded AScMs was investigated as a function of time (15, 30, 60, 90 and 120 minutes) and AScMs concentration (0.0001-1 mM). Furthermore, intracellular distribution and localization of dye-loaded AScMs in HUVEC was investigated using confocal microscope. […] The decreased accumulation of R110, R123 and LY in HUVEC monolayers was inversely correlated with the extent of their partitioning into AScMs. Uptake of R110, R123 and LY-loaded micelles was also time-dependent. […] Furthermore, confocal microscopy studies confirmed increased fluorescence activity in the cells with increase in the incubation time. […] Thus, AScMs can be used to localize therapeutic compounds into cells, for example, to achieve a sustained therapeutic effect.

[1] = AScMs at concentrations above the CMC
[2] = AScMs at concentrations below the CMC

Structure (SMILES) | dye accumulation in HUVEC monolayers [1] | dye accumulation in HUVEC monolayers [2]
NNC(=O)NN1C(=O)c2cc(S(=O)(=O)[O-])cc3c(N)c(S(=O)(=O)[O-])cc(c23)C1=O.[Li+].[Li+] [LY] | significant decrease | significant increase
Nc1ccc2c(-c3ccccc3C(=O)O)c3ccc(N)cc3[o+]c2c1.[Cl-] [R110] | significant decrease | significant increase
COC(=O)c1ccccc1-c1c2ccc(N)cc2[o+]c2cc(N)ccc12 [R123] | significant decrease | significant increase
